Measured values from publication PMC10066365, “Nemacol is a small molecule inhibitor of C. elegans vesicular acetylcholine transporter with anthelmintic potential” (Nature Communications, 2023).
Values joined by “and” are separate entries in the source; they are usually repeats but may differ in a detail not shown here. Equal entries are not always repeated. Where two headings read alike, the source gives them in different places.

Key:
[1] = test system: C. elegans unc-17 mutants
Description: Significance was calculated using Fisher’s method (one-sided comparisons; see 'Methods'). […] Worms were incubated on the plates for 60 min.
Locomotor phenotype analyses were done in 24-well plates with 1 mL of MYOB substrate (27.5 g Trizma HCl, 12 g Trizma Base, 230 g bacto tryptone, 10 g NaCl, 0.4 g cholesterol (95%)) seeded with 25 µL of OP50 Escherichia coli on each well. Each compound was added to the MYOB substrate before pouring to achieve the desired final concentrations of 30 µM or 60 µM after diffusion through the media. Synchronized young adult worms are transferred into each well using a platinum wire pick. A Leica MZ75 stereomicroscope was used to visualize the movement of worms on the solid substrate. The specific dominant locomotor phenotype (i.e. ‘Punc’, ‘paralyzed’, ‘coiler’ or ‘wild-type locomotion’) was scored after the touch on the head with a platinum wire over a ~3–5 s of observation. […] Coiled animals were not scored as paralyzed despite sometimes not responding to light touch.

C. elegans = C. elegans 3-day liquid viability assay, Nemacol-1 x Ivermectin matrix, wild type; details: for total animals normalized to corresponding controls: N2 wild type; for nemacol-1 x ivermectin matrix dose-response raw data: ivermectin 0 (row head 0), 3 replicate columns
[2] = unc-17 (e327), 15 µM, 60 min, single Bio Rep
[3] = unc-17 (e327), 30 µM, 60 min, single Bio Rep
[4] = unc-17 (e327), 60 µM, 60 min, single Bio Rep
[5] = unc-17 (e795), 15 µM, 60 min, average of 3 biological repeats
[6] = unc-17 (e795), 15 µM, young adult, average of 3 biological repeats
[7] = unc-17 (e795), 30 µM, young adult, average of 3 biological repeats
[8] = unc-17 (e795), 60 µM, young adult, average of 3 biological repeats
[9] = unc-17 (md414), 15 µM, 60 min, adult worms, average of 3 biological repeats
[10] = unc-17 (md414), 30 µM, 60 min, average of 3 biological repeats
[11] = unc-17 (md414), 60 µM, 60 min, average of 3 biological repeats
[12] = unc-17 (md414), 15 µM, 60 min, single Bio Rep
[13] = unc-17 (md414), 30 µM, 60 min, single Bio Rep
[14] = unc-17 (md414), 60 µM, 60 min, single Bio Rep
[15] = Caenorhabditis elegans, read-out: C. elegans viability

In the case of `O=[N+]([O-])c1ccc(N2CCN(CC3CCCCC3)CC2)cc1` [Nemacol-1], the “Fraction Coiled” value [1, 2] was 0.75 and 0.72 and 0.83, the “Fraction Jerky-Unc” value [1, 2] was 0.125 and 0.1667 and the “Fraction No Phenotype” value [1, 2] was 0.00. For the same compound, the “J (jerky-unc) worm count” value [1, 2] was 3 and 2, the “NP (no phene) worm count” value [1, 2] was 0 and the “Fraction Coiled, Averages of 3 biological repeats” value ([1]; unc-17 (e327), 30 µM, 60 min) was 0.66. For the same compound, the “Fraction Jerky-Unc, Averages of 3 biological repeats” value ([1]; unc-17 (e327), 30 µM, 60 min) was 0.12, the “Fraction No Phenotype, Averages of 3 biological repeats” value ([1]; unc-17 (e327), 30 µM, 60 min) was 0.00 and the “Fraction Parayzed, Averages of 3 biological repeats” value ([1]; unc-17 (e327), 30 µM, 60 min) was 0.23. For the same compound, the “C1 (loose coil) worm count” value [1, 3] was 2 and 4, the “C2 (tight coil) worm count” value [1, 3] was 8 and 9 and 7 and the “Fraction Coiled” value [1, 3] was 0.69 and 0.56 and 0.72. The “Fraction No Phenotype” value [1, 3] was 0.00, the “NP (no phene) worm count” value [1, 3] was 0 and the “Fraction Coiled, Averages of 3 biological repeats” value ([1]; unc-17 (e327), 60 µM, 60 min) was 0.48. For the same compound, the “Fraction Jerky-Unc, Averages of 3 biological repeats” value ([1]; unc-17 (e327), 60 µM, 60 min) was 0.037, the “Fraction No Phenotype, Averages of 3 biological repeats” value ([1]; unc-17 (e327), 60 µM, 60 min) was 0.00 and the “Fraction Parayzed, Averages of 3 biological repeats” value ([1]; unc-17 (e327), 60 µM, 60 min) was 0.48. For the same compound, the “C1 (loose coil) worm count” value [1, 4] was 4 and 3 and 2, the “Fraction No Phenotype” value [1, 4] was 0.00 and the “NP (no phene) worm count” value [1, 4] was 0. For the same compound, the “P (paralyzed) worm count” value [1, 4] was 8 and 6 and 12, the “Fraction Coiled” value [1, 5] was 0.81 and the “Fraction Jerky-Unc” value [1, 5] was 0.09. The “Fraction No Phenotype” value [1, 5] was 0.00, the “Fraction Parayzed” value [1, 5] was 0.09 and the “Fraction Coiled” value [1, 6] was 0.74. The “Fraction Jerky-Unc” value [1, 6] was 0.24, the “Fraction No Phenotype” value [1, 6] was 0.00 and the “Fraction Parayzed” value [1, 6] was 0.0185. For the same compound, the “Fraction Coiled” value [1, 7] was 0.83, the “Fraction Jerky-Unc” value [1, 7] was 0.0556 and the “Fraction No Phenotype” value [1, 7] was 0.00. The “Fraction Parayzed” value [1, 7] was 0.11, the “Fraction Coiled” value [1, 8] was 0.63 and the “Fraction Jerky-Unc” value [1, 8] was 0.0556. For the same compound, the “Fraction No Phenotype” value [1, 8] was 0.00, the “Fraction Parayzed” value [1, 8] was 0.31 and the “Fraction Coiled” value [1, 9] was 0.19. The “Fraction Jerky-Unc” value [1, 9] was 0.60, the “Fraction No Phenotype” value [1, 9] was 0.21 and the “Fraction Parayzed” value [1, 9] was 0.00. The “Fraction Coiled” value [1, 10] was 0.44, the “Fraction Jerky-Unc” value [1, 10] was 0.47 and the “Fraction No Phenotype” value [1, 10] was 0.037. For the same compound, the “Fraction Parayzed” value [1, 10] was 0.06, the “Fraction Coiled” value [1, 11] was 0.59 and the “Fraction Jerky-Unc” value [1, 11] was 0.27. The “Fraction No Phenotype” value [1, 11] was 0.00, the “Fraction Parayzed” value [1, 11] was 0.13 and the “Fraction Coiled, Averages of 3 biological repeats” value ([1]; unc-17 (md414), 15 µM, 60 min) was 0.25. For the same compound, the “Fraction Jerky-Unc, Averages of 3 biological repeats” value ([1]; unc-17 (md414), 15 µM, 60 min) was 0.52, the “Fraction No Phenotype, Averages of 3 biological repeats” value ([1]; unc-17 (md414), 15 µM, 60 min) was 0.23 and the “Fraction Parayzed, Averages of 3 biological repeats” value ([1]; unc-17 (md414), 15 µM, 60 min) was 0.00. For the same compound, the “C1 (loose coil) worm count” value [1, 12] was 1 and 2, the “Fraction Jerky-Unc” value [1, 12] was 0.35 and 0.6111 and 0.5882 and the “Fraction Parayzed” value [1, 12] was 0. For the same compound, the “J (jerky-unc) worm count” value [1, 12] was 11 and 7 and 10, the “P (paralyzed) worm count” value [1, 12] was 0 and the “Fraction Coiled, Averages of 3 biological repeats” value ([1]; unc-17 (md414), 30 µM, 60 min) was 0.54. The “Fraction Jerky-Unc, Averages of 3 biological repeats” value ([1]; unc-17 (md414), 30 µM, 60 min) was 0.44, the “Fraction No Phenotype, Averages of 3 biological repeats” value ([1]; unc-17 (md414), 30 µM, 60 min) was 0.00 and the “Fraction Parayzed, Averages of 3 biological repeats” value ([1]; unc-17 (md414), 30 µM, 60 min) was 0.0185. The “C1 (loose coil) worm count” value [1, 13] was 4 and 2 and 3, the “C2 (tight coil) worm count” value [1, 13] was 5 and 8 and 6 and the “Fraction Coiled” value [1, 13] was 0.50 and 0.63. The “Fraction Jerky-Unc” value [1, 13] was 0.5 and 0.4444 and 0.375, the “Fraction No Phenotype” value [1, 13] was 0.00 and the “J (jerky-unc) worm count” value [1, 13] was 8 and 9 and 6. The “NP (no phene) worm count” value [1, 13] was 0, the “Fraction Coiled, Averages of 3 biological repeats” value ([1]; unc-17 (md414), 60 µM, 60 min) was 0.49 and the “Fraction Jerky-Unc, Averages of 3 biological repeats” value ([1]; unc-17 (md414), 60 µM, 60 min) was 0.28. For the same compound, the “Fraction No Phenotype, Averages of 3 biological repeats” value ([1]; unc-17 (md414), 60 µM, 60 min) was 0.00, the “Fraction Parayzed, Averages of 3 biological repeats” value ([1]; unc-17 (md414), 60 µM, 60 min) was 0.22 and the “C2 (tight coil) worm count” value [1, 14] was 6. The “Fraction Coiled” value [1, 14] was 0.56 and 0.59 and 0.33, the “Fraction No Phenotype” value [1, 14] was 0.00 and the “J (jerky-unc) worm count” value [1, 14] was 6 and 3. The “NP (no phene) worm count” value [1, 14] was 0, the “fold lowering of Ivermectin's EC50” value (C. elegans; 3-day viability, wild type) was 3 fold and the viability at 15 µM (C. elegans; [15]) was 97%. The viability at 30 µM (C. elegans; [15]) was 97%, the viability at 60 µM (C. elegans; [15]) was 83% and the “global ZIP synergy score” value (C. elegans; Ivermectin + Nemacol-1, wild type, threshold of synergy 10) was 20.0. For the same compound, the “total animals normalized to corresponding controls” value (“total animals normalized” below) (C. elegans; nemacol-1 0.9375, ivermectin 0 uM) was 1.1, the “total animals normalized” value (C. elegans; nemacol-1 1.875, ivermectin 0 uM) was 1.1 and the “total animals normalized” value (C. elegans; nemacol-1 3.75, ivermectin 0 uM) was 1.2. The “total animals normalized” value (C. elegans; nemacol-1 7.5, ivermectin 0 uM) was 1.1, the “total animals normalized” value (C. elegans; nemacol-1 15, ivermectin 0 uM) was 0.9 and the “total animals normalized” value (C. elegans; nemacol-1 30, ivermectin 0 uM) was 0.9. The “nemacol-1 x ivermectin matrix dose-response raw data” value (C. elegans; wt (N2) + 15 uM nemacol) was 100.0 and 76.7 and 84.0, the “nemacol-1 x ivermectin matrix dose-response raw data” value (C. elegans; wt (N2) + 30 uM nemacol) was 102.1 and 93.3 and 70.0 and the “nemacol-1 x ivermectin matrix dose-response raw data” value (C. elegans; wt (N2) + 60 uM nemacol) was 119.1 and 66.7 and 70.0. For the same compound, the “nemacol-1 x ivermectin matrix dose-response raw data” value (C. elegans; wt (N2) + 3.75 nemacol) was 102.1 and 150.0 and 114.0.
